Measured values as given in US20230183746A1, “COMPOSITIONS FOR TRANSFER OF CARGO TO CELLS” (Sixfold Bioscience Ltd., priority 2019, published 2023).
“Also recorded” adds a separate entry of the source. {Cy5} = Cy5 fluorescent dye; r = 2'-OH (RNA); f = 2'-fluoro

Assays:
[1] = system: EGFRvIII overexpressing HEK293T cells; experiment: FACS based fluorescent molecule uptake assay; type: cell-based; details: 200 nM, 2 hours
Source text: A number of different cell types have been trialled for a FACS based fluorescent molecule uptake assay. These include stably transfected HEK293T cells overexpressing the truncated mutant EGFRvIII, which is characterised by a deletion of 267 amino acids in the extracellular domain and results in a receptor unable to bind ligand yet constitutively active. WT cells with various endogenous levels of EGFR expression have also been trialled: HELA cells (EGFR+), MCF-7 (EGFR-), MDA-MB-231 (EGFR+), and A549 (EGFR+). Seeding densities used were identical for all experiments and described below.
Cells were plated with 1x10^5 cells per well of 24 well plates. 24 hours later cells were treated with 200 nM of specified aptamer (A-1.0 or A-2.0) or nucleic acid nanoparticle in 250 µL DMEM media for 2 hours. To terminate internalisation, media was removed from cells and washed with 500 µL Dulbecco’s Phosphate Buffered Saline (D-PBS), followed by trypsinisation, neutralisation in DMEM media and transfer to labelled 1.5 mL Eppendorf tubes. […]
Geometric mean quantification of flow cytometry results after normalisation by removal of respective background fluorescence in untreated cells. Numbers above the bars are calculated fold increase in internalisation between control and EGFRvIII overexpressing HEK293T cells. […]

[2] = system: cancer cells expressing EGFR; experiment: confocal microscopy of Cy5-labelled aptamer/construct uptake; type: cell-based; details: live HeLa cells, 200 nM, Lysotracker and early endosome GFP stains
Description: Cells were imaged by confocal microscopy after treatment with 200 nM Cy5-labelled E07min aptamer (A-1.0) or 200 nM Cy5-labelled constructs (SQ1-1000-001). For aptamer uptake experiments, 1x10^4 cells were plated in each well of a µ-Slide 8 well ibiditreat chamber (IBIDI), in 300 µL DMEM containing 10% v/v FBS. For uptake experiments, 3.4x10^3 cells (HeLa, MDA-MB-231 and A549 cells) or 6.8x10^3 cells (Mcf-7) were plated in each well of a µ-Slide 18 well ibiditreat chamber (IBIDI), in 100 µL DMEM containing 10% v/v FBS. 5 hours after cells had adhered and 48 hours before imaging, media was replaced with 50 particles per cell (PPC) CellLight early endosome-GFP (Thermo Fisher Scientific) for overnight incubation at 37° C. Additionally, 200 µL DMEM aliquots containing 200 nM aptamer were added to cells at corresponding incubation time points. Subsequently, media was removed and replaced with 60 nM LysoTracker Red DND-99 (Thermo Fisher Scientific) in 100-200 µL DMEM for 1 hour at 37° C. Cells were then washed once with Hank’s Balanced Salt Solution (HBSS) (Gibco). Finally, 100-200 µL imaging media (HBSS buffered with 20 mM 4-(2- hydroxyethyl)-1-piperazineethanesulfonic acid (HEPES), adjusted to pH 7.4) was added to cells. Confocal images were captured with an EVOS microscope or a Zeiss LSM510 laser scanning microscope using 60x oil objective lens. Images were produced using ImageJ software.

[Cy5] GGAcGGAuuuAAucGccGuAGAAAAGCAuGucAAAGccGGAAccGucc (GGACGGAUUUAAUCGCCGUAGAAAAGCAUGUCAAAGCCGGAACCGUCC; sugars from the 5' end rrrfrrrfffrrffrffrfrrrrrrrrrfrffrrrrffrrrrffrfff, 5' {Cy5}, backbone not given here) [A-1.0, 2′F U, C 5′ Cy5 E07min (SXF1) aptamer, anti-EGFR, literature-known]
EGFR targeting specificity compared to a scramble control aptamer (A-3.0) ([1]; control vs EGFRvIII overexpressing HEK293T cells): 10 fold
specificity of uptake (flow cytometry) ([1]; Cy5-labelled aptamer): more specifically uptaken than SXF2 (CL4 aptamer); also recorded: specifically uptaken by EGFR expressing cells
intracellular localisation after internalisation [2]: accumulate in lysosomes after internalisation
